The record followed here is PMC7159882, “Polyunsaturated fatty acid analogues differentially affect cardiac NaV, CaV, and KV channels through unique mechanisms” (eLife, 2020).

In this test the target is T1, Nav1.5/β1 (Homo sapiens, UniProt Q14524).
T1 construct: Nav1.5 (UniProt: Q14524.1); expressed in transfected cells; host or cells: Xenopus laevis oocytes (cRNA injection, Nav1.5:β1 2:1 by weight)
Put plainly: Two-electrode voltage clamp of Nav1.5/β1 expressed in Xenopus oocytes. To be noted: for INa I/I0: relative current at 0 mV. The format is cell-based. The procedure: Molecular Biology cRNA encoding Kv7.1 (UniProt: P51787), KCNE1 (UniProt: P15382.1), Nav1.5 (UniProt: Q14524.1), Nav β1 (UniProt: […]), Nav β3 (UniProt: […]), Cav1.2 (GenBank: CAA84346), Cav β3 (Uniprot: P54286), Cav β2 (Uniprot: P54288), and Cav α2δ (Uniprot: P13806) were transcribed using the mMessage mMachine T7 kit (Ambion). 50 ng of cRNA was injected into defolliculated Xenopus laevis oocytes (Ecocyte, Austin, TX): For Kv7.1/KCNE1 channel expression, we injected a 3:1, weight:weight (Kv7.1:KCNE1) cRNA ratio. For Nav1.5 channel expression, we injected a 2:1, weight:weight (Nav1.5:β1) cRNA ratio. For Cav1.2 channel expression, we injected a 2:1:1, weight:weight (Cav1.2:β3:α2δ) cRNA ratio. The exact stoichiometry for channel macromolecular complexes, including α -subunits and auxiliary subunits is not clear for many ion channels. For example, there have been multiple reported stoichiometries for Kv7.1:KCNE1 determined in heterologous expression systems with some groups reporting flexible stoichiometry of 4 Kv7.1: 1–4 KCNE1 and others reporting a fixed stoichiometry of 4 Kv7.1: 2 KCNE1 ([Murray et al., 2016]; [Nakajo et al., 2010]). The ratios of cRNA of α- and auxiliary subunits that we injected in Xenopus laevis oocytes are such that all α-subunits are assumed to be in complex with auxiliary subunits. This allows a more homogenous population of ion channels with auxiliary subunits. One caveat to expressing ion channels as macromolecular complexes is that there are many other auxiliary subunits that could associate with the channel α -subunit that are present in cardiomyocytes and have the potential to alter PUFA-induced effects, but that are not being co-expressed in our experiments. In this work, we are co-expressing some of the auxiliary subunits that have been primarily reported to associate with their respective α -subunits in cardiomyocytes. Following cRNA injection, cells were incubated for 72–96 hr in standard ND96 solution (96 mM NaCl, 2 mM KCl, 1 mM MgCl2, 1.8 mM CaCl2, 5 mM HEPES; pH = 7.5) containing 1 mM pyruvate at 16°C prior to electrophysiological recordings.
Xenopus laevis oocytes were recorded in the two-electrode voltage clamp (TEVC) configuration. Recording pipettes were filled with 3 M KCl. The recording chamber was filled with ND96 (96 mM NaCl, 2 mM KCl, 1 mM MgCl2, 1.8 mM CaCl2, 5 mM HEPES; pH 7.5). For Cav1.2/β3/α2δ channel recordings, Xenopus oocytes were injected with 50 nl of 100 mM EGTA and incubated at 10°C for 30 min prior to electrophysiological recordings in order to sequester cytosolic calcium. In addition, Cav1.2/β3/α2δ channel recordings were done in Ca^2+-free solutions, using Ba^2+ as the charge carrier, to prevent calcium-dependent inactivation of Cav1.2/β3/α2δ channels. Calcium-dependent inactivation was not studied in this work, due to the presence of large calcium-activated chloride currents present in Xenopus laevis oocytes. PUFAs were obtained from Cayman Chemical (Ann Arbor, MI.) or synthesized in house (Linköping, Sweden) through methods previously described ([Bohannon et al., 2020]) and kept at −20 °C as 100 mM stock solutions in ethanol. Serial dilutions of the different PUFAs were prepared from stocks to make 0.2 μM, 0.7 μM, 2 μM, 7 μM, and 20 μM concentrations in ND96 solutions (pH = 7.5). PUFAs were perfused into the recording chamber using the Rainin Dynamax Peristaltic Pump (Model RP-1) (Rainin Instrument Co., Oakland, CA. USA).
Electrophysiological recordings were obtained using Clampex 10.3 software (Axon, pClamp, Molecular Devices). To measure Kv7.1/KCNE1 currents we apply PUFAs as the membrane potential is stepped every 30 s from −80 mV to 0 mV for 5 s before stepping to −40 mV and back to −80 mV to ensure that the PUFA effects on the current at 0 mV reached steady state. A voltage-step protocol was used to measure the current vs. voltage (I-V) relationship before PUFA application and after the PUFA effects had reached steady state for each concentration of PUFA. […]

Each structure is given as a SMILES string. “And” between values parts separate entries of the source, which are not always exact repeats. Equal entries are not always repeated.

T1 sequence (Q14524 whole entry): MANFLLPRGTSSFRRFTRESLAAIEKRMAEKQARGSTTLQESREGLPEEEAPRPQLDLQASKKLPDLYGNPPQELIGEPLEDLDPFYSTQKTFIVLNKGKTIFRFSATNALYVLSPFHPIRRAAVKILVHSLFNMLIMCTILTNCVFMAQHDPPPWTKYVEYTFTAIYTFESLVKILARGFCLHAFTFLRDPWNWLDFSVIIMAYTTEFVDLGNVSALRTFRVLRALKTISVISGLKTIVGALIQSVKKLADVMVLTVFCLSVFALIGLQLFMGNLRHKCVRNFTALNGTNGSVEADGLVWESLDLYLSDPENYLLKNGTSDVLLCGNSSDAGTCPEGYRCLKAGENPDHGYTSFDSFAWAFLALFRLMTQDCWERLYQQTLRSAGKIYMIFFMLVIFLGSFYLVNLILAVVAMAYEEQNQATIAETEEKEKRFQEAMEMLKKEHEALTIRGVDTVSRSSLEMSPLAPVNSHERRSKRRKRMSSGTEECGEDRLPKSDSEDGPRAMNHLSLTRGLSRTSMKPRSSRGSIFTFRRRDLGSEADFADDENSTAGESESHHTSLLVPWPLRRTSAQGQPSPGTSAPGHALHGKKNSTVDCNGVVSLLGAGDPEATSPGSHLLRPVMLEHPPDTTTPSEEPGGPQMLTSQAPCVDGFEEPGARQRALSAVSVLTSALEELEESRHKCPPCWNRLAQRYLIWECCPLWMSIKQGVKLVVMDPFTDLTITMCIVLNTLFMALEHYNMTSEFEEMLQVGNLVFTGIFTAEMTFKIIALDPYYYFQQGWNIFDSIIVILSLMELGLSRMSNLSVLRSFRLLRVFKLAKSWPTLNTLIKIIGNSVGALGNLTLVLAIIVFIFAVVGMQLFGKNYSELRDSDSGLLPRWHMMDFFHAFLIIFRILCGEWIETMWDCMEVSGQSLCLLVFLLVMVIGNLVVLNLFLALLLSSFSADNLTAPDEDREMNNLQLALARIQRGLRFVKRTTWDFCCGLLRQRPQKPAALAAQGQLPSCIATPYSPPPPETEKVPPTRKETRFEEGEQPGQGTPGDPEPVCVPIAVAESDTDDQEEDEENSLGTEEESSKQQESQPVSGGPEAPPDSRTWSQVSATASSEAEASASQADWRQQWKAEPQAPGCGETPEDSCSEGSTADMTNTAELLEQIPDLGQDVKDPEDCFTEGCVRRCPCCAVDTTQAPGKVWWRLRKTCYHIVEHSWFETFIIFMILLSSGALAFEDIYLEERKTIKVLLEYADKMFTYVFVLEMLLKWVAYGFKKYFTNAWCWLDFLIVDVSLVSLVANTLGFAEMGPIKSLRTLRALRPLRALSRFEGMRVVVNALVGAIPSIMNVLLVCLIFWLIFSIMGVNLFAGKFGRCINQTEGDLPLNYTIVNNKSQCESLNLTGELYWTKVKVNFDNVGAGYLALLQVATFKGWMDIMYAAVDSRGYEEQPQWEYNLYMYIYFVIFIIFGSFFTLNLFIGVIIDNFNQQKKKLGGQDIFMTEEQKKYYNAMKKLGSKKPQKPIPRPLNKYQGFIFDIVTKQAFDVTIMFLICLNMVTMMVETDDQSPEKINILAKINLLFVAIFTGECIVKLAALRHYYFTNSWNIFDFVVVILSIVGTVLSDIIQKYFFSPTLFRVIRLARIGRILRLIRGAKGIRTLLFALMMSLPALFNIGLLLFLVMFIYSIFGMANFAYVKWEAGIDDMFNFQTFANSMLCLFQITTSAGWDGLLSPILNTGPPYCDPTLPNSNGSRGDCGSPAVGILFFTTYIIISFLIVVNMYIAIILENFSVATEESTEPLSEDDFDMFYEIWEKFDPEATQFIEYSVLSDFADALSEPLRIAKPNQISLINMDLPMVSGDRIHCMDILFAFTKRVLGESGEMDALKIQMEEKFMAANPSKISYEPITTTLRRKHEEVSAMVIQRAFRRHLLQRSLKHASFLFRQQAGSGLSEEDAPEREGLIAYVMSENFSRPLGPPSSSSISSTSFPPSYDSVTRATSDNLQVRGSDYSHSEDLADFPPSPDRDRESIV
T1 sequence (Q07699 19-218 partner): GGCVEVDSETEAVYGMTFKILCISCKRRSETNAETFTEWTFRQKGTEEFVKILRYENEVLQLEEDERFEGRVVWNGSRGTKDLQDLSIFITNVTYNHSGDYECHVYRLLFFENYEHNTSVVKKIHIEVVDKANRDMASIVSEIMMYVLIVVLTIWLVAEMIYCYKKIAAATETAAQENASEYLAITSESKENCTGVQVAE

For `CC/C=C\C/C=C\C/C=C\C/C=C\C/C=C\C/C=C\CCC(=O)NCC(=O)O` [DHA-glycine, docosahexaenoyl glycine], the Gmax/Gmax0 runs as follows: (0.2 μM) 1.0 ± 0.02; (0.7 μM) 1.0 ± 0.03; (2 μM) 1.0 ± 0.04; (7 μM) 1.0 ± 0.04; (20 μM) 0.5 ± 0.1. Moreover, the “ΔV0.5 (voltage dependence of inactivation)” value is 0.3 ± 0.1 mV (0.2 μM); -0.2 ± 0.6 mV (0.7 μM); -0.3 ± 0.5 mV (2 μM); −2.4 ± 0.6 mV and -2.4 ± 0.7 mV (7 μM); -11.5 ± 1.7 mV (20 μM). The “INa I/I0” value turned out to be 1.0 ± 0.02 (0.2 μM), 1.0 ± 0.04 (0.7 μM), 1.1 ± 0.05 (2 μM) and 0.7 ± 0.1 (20 μM).
For the molecule `CCCCC/C=C\C/C=C\CCCCCCCC(=O)NCC(=O)O` [Lin-glycine], the Gmax/Gmax0 reads like this: (0.2 μM) 1.0 ± 0.03; (0.7 μM) 1.0 ± 0.05; (2 μM) 0.9 ± 0.06; (7 μM) 0.5 ± 0.1; (20 μM) 0.2 ± 0.02. For the same molecule, the “ΔV0.5 (voltage dependence of inactivation)” value (0.2 μM) is on record as -0.2 ± 0.06 mV; the “ΔV0.5 (voltage dependence of inactivation)” value (0.7 μM) is recorded as -1.2 ± 0.3 mV; the “ΔV0.5 (voltage dependence of inactivation)” value (2 μM) was -4.3 ± 0.8 mV; the “ΔV0.5 (voltage dependence of inactivation)” value (7 μM) is on record as −15.2 ± 2.8 mV; the “ΔV0.5 (voltage dependence of inactivation)” value (7 μM, listed as lin-glycine) was -15.2 ± 2.8 mV; the “ΔV0.5 (voltage dependence of inactivation)” value (20 μM) is -21.7 ± 1.2 mV. The “INa I/I0” value reads like this: (0.2 μM) 1.0 ± 0.03; (0.7 μM) 1.0 ± 0.04; (2 μM) 0.9 ± 0.1; (7 μM) 0.5 ± 0.1 (p=0.02); (7 μM, listed as lin-glycine) 0.5 ± 0.1; (20 μM) 0.3 ± 0.02.
As for `CCCCC/C=C\C/C=C\CCCCCCCC(=O)NCCS(=O)(=O)O` [Lin-taurine, Linoleoyl taurine], the Gmax/Gmax0 reads like this: (0.2 μM) 1.0 ± 0.01; (0.7 μM) 1.0 ± 0.01; (2 μM) 0.9 ± 0.05; (7 μM) 0.5 ± 0.07; (20 μM) 0.3 ± 0.04. The “ΔV0.5 (voltage dependence of inactivation)” value reads like this: (0.2 μM) -0.3 ± 0.1 mV; (0.7 μM) -2.2 ± 0.7 mV; (2 μM) -8.8 ± 1.7 mV; (7 μM) −23.5 ± 1.9 mV; (7 μM, listed as lin-taurine) -23.5 ± 1.9 mV; (20 μM) -34.9 ± 1.5 mV. Besides, the “INa I/I0” value runs as follows: (0.2 μM) 1.0 ± 0.01; (0.7 μM) 1.0 ± 0.05; (2 μM) 0.6 ± 0.07; (7 μM) 0.1 ± 0.02 (p=0.0001); (7 μM, listed as lin-taurine) 0.1 ± 0.02; (20 μM) 0.1 ± 0.01. The “shift of the voltage dependence of activation” value (0.2-20 μM) was “no shift in the voltage dependence of activation”.
As for `CCCCC/C=C\C/C=C\C/C=C\C/C=C\CCCC(=O)NCCS(=O)(=O)O` [N-AT, N-arachidonoyl taurine], the Gmax/Gmax0 by setting is: (0.2 μM) 1.0 ± 0.04; (0.7 μM) 1.0 ± 0.06; (2 μM) 0.7 ± 0.03; (7 μM) 0.3 ± 0.04; (20 μM) 0.07 ± 0.01. Further, the “ΔV0.5 (voltage dependence of inactivation)” value runs as follows: (0.2 μM) -0.2 ± 0.5 mV; (0.7 μM) 0.2 ± 1.4 mV; (2 μM) -5.2 ± 0.4 mV; (7 μM) “–16.7 ± 3.5 mV”; (20 μM) -27.5 ± 2.9 mV. Besides, the “INa I/I0” value was found to be 1.0 ± 0.09 (0.2 μM), 1.0 ± 0.07 (0.7 μM), 0.7 ± 0.08 (2 μM) and 0.1 ± 0.02 (20 μM).
For the molecule `CCCCC/C=C\C/C=C\CC/C=C\CCCC(=O)NCC(=O)O` [Pin-glycine], the Gmax/Gmax0 runs as follows: (0.2 μM) 1.0 ± 0.03; (0.7 μM) 1.0 ± 0.03; (2 μM) 0.9 ± 0.04; (7 μM) 0.7 ± 0.08; (7 μM, listed as pin-glycine) 0.7 ± 0.1; (20 μM) 0.3 ± 0.1. The “ΔV0.5 (voltage dependence of inactivation)” value is 0.4 ± 0.3 mV (0.2 μM); 0.4 ± 0.6 mV (0.7 μM); -0.3 ± 0.7 mV (2 μM); “–4.7 ± 1.9 mV” (7 μM); -4.8 ± 1.9 mV (7 μM, listed as pin-glycine); -17.8 ± 4.2 mV (20 μM). For the same molecule, the “INa I/I0” value by setting is: (0.2 μM) 1.1 ± 0.05; (0.7 μM) 1.1 ± 0.1; (2 μM) 1.0 ± 0.1; (7 μM) 0.7 ± 0.1 (p=0.09); (7 μM, listed as pin-glycine) 0.7 ± 0.1; (20 μM) 0.3 ± 0.1.
On to `CCCCC/C=C\C/C=C\CC/C=C\CCCC(=O)NCCS(=O)(=O)O` [Pin-taurine], for which the Gmax/Gmax0 (0.2 μM) is recorded as 1.2 ± 0.2; the Gmax/Gmax0 (0.7 μM) is listed as 1.2 ± 0.2; the Gmax/Gmax0 (2 μM) was determined as 1.0 ± 0.1; the Gmax/Gmax0 (7 μM) is on record as 0.4 ± 0.09; the Gmax/Gmax0 (7 μM, listed as pin-taurine) is given as 0.4 ± 0.1; the Gmax/Gmax0 (20 μM) amounted to 0.1 ± 0.02. Further, the “ΔV0.5 (voltage dependence of inactivation)” value (0.2 μM) is 1.6 ± 0.9 mV; the “ΔV0.5 (voltage dependence of inactivation)” value (0.7 μM) turned out to be 0.9 ± 1.1 mV; the “ΔV0.5 (voltage dependence of inactivation)” value (2 μM) is -3.0 ± 1.9 mV; the “ΔV0.5 (voltage dependence of inactivation)” value (7 μM) is “–16 ± 2.7 mV”; the “ΔV0.5 (voltage dependence of inactivation)” value (7 μM, listed as pin-taurine) was -16.0 ± 2.7 mV; the “ΔV0.5 (voltage dependence of inactivation)” value (20 μM) is -28.1 ± 2.4 mV. The “INa I/I0” value is reported as 1.2 ± 0.1 (0.2 μM); 1.2 ± 0.1 (0.7 μM); 1.0 ± 0.1 (2 μM); 0.5 ± 0.1 (p=0.01) (7 μM); 0.5 ± 0.1 (7 μM, listed as pin-taurine); 0.2 ± 0.03 (20 μM).
